Measurements taken from US9556113B2, “Combination uses of dichloroacetate and oxamate, and their prodrugs, for cancer treatment” (The South Dakota Board of Regents, priority 2014, dated 2017).

How the values were obtained:
[1] = system: HPV+E6E7 Ras tumor (E6/E7/Ras MOEs cells); experiment: Tumor response to cisplatin/radiation therapy (CRT), HPV positive HNSCC mouse model; type: in vivo, C57Bl/6 mice; conditions: for tumor growth with CRT compared to DCA plus oxamate (FIG. 8A/19): prodrug 7.6 mg/mouse i.p. weekdays, control DCA 6 mg/mouse + oxamate 2 (2.2) mg/mouse, all with CRT
Description: FIG. 7 illustrates the effects of DCA plus oxamate on tumor growth (A) or on survival (B) with HPV+ model of HNSCC in wild-type C57Bl/6 mice. All mice received 3 rounds of cisplatin (0.132 mg/mouse) plus radiation (8 Gy/mouse) treatment (Tx) at weekly intervals starting […] after tumor initiation. Mice receiving DCA (6 mg/mouse) plus oxamate (15 mg/mouse) were treated every weekday, starting with the first chemoradiation treatment by i.p. injection.
FIG. 8 illustrates a comparison of prodrugs to DCA plus oxamate on tumor growth (A) or on survival (B) with HPV+ model of HNSCC in wild-type C57Bl/6 mice. All mice received 3 rounds of CRT [cisplatin (0.132 mg/mouse) plus radiation (8 Gy/mouse) treatment (Tx) at weekly intervals starting 11 days after tumor initiation]. Mice receiving DCA (6 mg/mouse) plus oxamate (2.2 mg/mouse) were treated every weekday starting with the first chemoradiation treatment by i.p. injection. Mice treated with AT-N4-001 or AT-N4-002 prodrugs (7.6 mg/mouse) were treated on the same schedule as mice treated with DCA+oxamate.
FIG. 18. The effects of DCA, oxamate, DCA plus oxamate on the responses of HPV+E6E7 Ras tumor to CRT. One million E6/E7/Ras MOEs cells were injected subcutaneously into the rear leg of wild-type C57Bl/6 mice. After 11 days, a treatment with DCA (6 mg/mouse) and oxamate (15 mg/mouse) were injected daily by i.p. on weekdays for the remainder of the experiment. All mice received three rounds of treatment with CRT (0.132 mg/mouse cisplatin and 8 Gy radiation, weekly starting at day 11). Tumor volume is mm^3.
FIG. 19 depicts the effects of DCA plus oxamate vs the effects of prodrug 1 or prodrug 2 on the responses of HPV+E6E7 Ras tumor to CRT. Tumors were initiated by injecting 0.5×10^6 E6/E7/Ras MOEs cells. After 11 days, a treatment with DCA (6 mg/mouse) plus oxamate (2 mg/mouse), or prodrug 1 (7.6 mg/mouse), or prodrug 2 (7.6 mg/mouse) was initiated daily by i.p. on weekdays. The doses of DCA and oxamate were equal molar equivalents as would be released from the prodrugs. All mice received three rounds of treatment with CRT (0.132 mg/mouse cisplatin and 8 Gy radiation, weekly starting at day 11). Tumor volume is in mm^3.
The effects of various treatments on tumor responses were carried out by examining whether the treatment could improve tumor's response to CRT with a HPV positive HNSCCs mouse model. CRT is a standard treatment for HPV-positive HNSCC in the clinic (46). […] Applicants also used this model to investigate the effects of lactate on CRT-induced immune-mediated cancer clearance (46) and DCA's effect on the tumor's response to CRT (unpublished data). The literature reported dosages of DCA and oxamate were used (6,23,52,53)(41).
To study the effects of the prodrugs on tumor growth in vivo, C57Bl/6 immune-competent mice implanted with E6/E7/Ras MOEs cells were used as described previously (46). All experiments were performed in accordance with institutional and national guidelines and regulations with the protocol approved by the Animal Care and Use Committee at Sanford Research. Briefly, 1×10^6 tumor HPV+HNSCC cells were injected into the right subcutaneous flank of syngeneic male C57Bl/6 mice. Eleven days after tumor initiation, treatment was initiated daily on weekdays by i.p. injection of vehicle, DCA, Oxamate, DCA+oxamate, prodrug 1, or prodrug 2. All mice received three rounds of treatment with cisplatin/radiation therapy (CRT: 0.132 mg/mouse cisplatin and 8 Gy radiation, weekly starting at day 11). Tumor dimensions were measured weekly to monitor growth. Mice with tumors reaching a volume of 3000 mm^3 or becoming substantially emaciated were euthanized.
To study the effects of the new prodrugs on tumor growth in vivo, C57Bl/6 immune-competent mice were used. Tumors were established on the right flank of the leg. After 11 days, treatment was initiated with daily i.p. injection of vehicle, AT-N4-001, or AT-N4-002. […]

[2] = Chemical stability (hydrolysis) in aqueous acetonitrile, HPLC; type: physicochemical; conditions: water:acetonitrile 1:1, ambient temperature, in 4 hours, 0.4 mg/mL
Description: FIG. 15 provides a graph of the hydrolysis of prodrug 1 (FIG. 15A) and prodrug 2 (FIG. 15B) in aqueous acetonitrile solution. Prodrug 1 or prodrug 2 (0.42 mg/mL) in aqueous acetonitrile (H2O:CH3CN=1:1) was stirred at ambient temperature. Aliquots were withdrawn and analyzed for the prodrug by HPLC as described in the experimental section.
Once the two prodrugs were obtained, their chemical stability and metabolic stability were determined. The chemical stability of prodrug 1 and prodrug 2 was determined in aqueous acetonitrile at ambient temperature. The prodrug (0.4 mg/mL) a mixture of water and acetonitrile (1:1) at ambient temperature. Aliquots were taken from the solution periodically and checked by HPLC for the presence of the prodrug. The HPLC analysis was carried out on a Beckman Coulter HPLC (System Gold) system, controlled by a system controller (32 Karat workstation with PC), equipped with a 125 gradient pumping module, a 508 autosampler with a sample cooling system, and a 168 photodiode array detector. The HPLC conditions employed an Apollo C18 column (250 mm×4.6 mm i.d., 5 μm) (Alltech, Deerfield, Ill.) and aqueous acetonitrile (50% with 0.1% TFA) as the mobile phase. The flow rate was 0.8 mL/min and the detection wavelength was 210 nm. Under the condition, the retention time for prodrugs 1 and 2 was 9.83 and 9.87 minutes respectively. […]

Row | Compound | tumor growth with CRT compared to DCA plus oxamate (FIG. 8A/19) [1] | tumor growth with CRT compared to DCA plus oxamate (FIG. 8A/19) ([1]; listed as prodrug 1) | hydrolysis of prodrug [2] | long-term survival (FIG. 8B) ([1]; CRT + 7.6 mg/mouse i.p.) [%] | tumor growth with CRT compared to DCA plus oxamate (FIG. 8A/19) ([1]; listed as Prodrug 2)
1 | NC(=O)C(=O)OC(COC(=O)C(Cl)Cl)COC(=O)C(Cl)Cl [AT-N4-001, 2-(2-Amino-2-oxoacetoxy)propane-1,3-diyl bis(2,2-dichloroacetate)] | initially reduced tumor growth compared to CRT+DCA+oxamate control, but this was not maintained over longer times | about equally potent as that of the combination | about 10% |  | 
2 | NC(=O)C(=O)OCC(COC(=O)C(Cl)Cl)OC(=O)C(Cl)Cl (stereo not shown) [AT-N4-002, 3-(2-amino-2-oxoacetoxy)propane-1,2-diyl bis(2,2-dichloroacetate)] | reduced average tumor growth compared to the control during the entire experiment |  | about 10% | ~25 | more effective than DCA plus oxamate during the entire experiment
